“Also recorded” adds a separate entry of the source. Like-named read-outs stand apart in the source and are kept apart here.
Key:
[1] = tested on: C2C12 cells; assay: Viability of C2C12 cells visualized by light microscopy; assay type: cell-based, mouse; conditions: 24 h
[2] = tested on: Toll-like receptor 9 (TLR9) trafficking in HEK293 cells transfected with HA-TLR9; assay: TLR9-trafficking assay; assay type: cell-based, human; conditions: 24 h treatment
Description: TLR^9-trafficking assay (Yang, Y. et al. Heat shock protein gp96 is a master chaperone for toll-like receptors and is important in the innate function of macrophages. Immunity 26, 215-26 (2007)). HEK 293T cells were transfected with pUNO-hTLR9-HA (Invivogen) using X-tremgene HP (Roche) according to the manufacturer's instructions. At 24 hrs post-transfection, cells were split onto cell culture chamber slides (Lab-Tek). Cells were then treated for 24 hrs with indicated compound at varying concentrations. After treatment, cells were fixed for 20 min in 4% paraformaldehyde in PBS, permeabilized with 0.1% Triton-X 100 in PBS for 10 min, blocked with 3% BSA in PBS for 30 min, followed by staining for 1 hr with an anti-HA antibody (Abcam, ab9110) or a normal rabbit IgG. Cells were washed with PBS, stained with an anti-rabbit-Cy3 antibody (Invitrogen) and finally mounted in the dark at 4° C. with Prolong Gold Antifade reagent (with DAPI). Cells were visualized under a confocal microscope (Leica Upright Confocal SP5). Fluorescence intensity was quantified using MetaMorph Microscopy Automation and Image Analysis Software (Molecular Devices Inc.) and normalized to the cell number.

[3] = tested on: PANC-1 cells; assay: Apoptosis assessment (Annexin V / 7AAD); assay type: cell-based
Text: Annexin V Apoptosis with 7-AAD has been specifically designed for the identification of apoptotic and necrotic cells. Annexin V (or Annexin A5) is a member of the annexin family of intracellular proteins that binds to phosphatidylserine (PS) in a calcium-dependent manner. PS is normally only found on the intracellular leaflet of the plasma membrane in healthy cells, but during early apoptosis, membrane asymmetry is lost and PS translocates to the external leaflet. Fluorochrome-labeled Annexin V can then be used to specifically target and identify apoptotic cells. Annexin V binding alone cannot differentiate between apoptotic and necrotic cells. To help distinguish between the necrotic and apoptotic cells 7-amino-actinomycin D (7-AAD) is used. Early apoptotic cells will exclude 7-AAD, while late stage apoptotic cells will stain positively, due to the passage of these dyes into the nucleus where they bind to DNA. 7-AAD (7-amino-actinomycin D) has a high DNA binding constant and is efficiently excluded by intact cells. It is useful for DNA analysis and dead cell discrimination during flow cytometric analysis. When excited by 488 laser light, 7-AAD fluorescence is detected in the far red range of the spectrum (650 nm long-pass filter).
Cell cycle and apoptosis assessment. Cell cycle and apoptosis were assessed by flow cytometry after single staining with propidium iodide (PI, BD Pharmingen) or double staining with AnnexinV-FITC (BD Pharmingen) and 7AAD (BD Pharmingen), respectively. Specifically, for cell cycle analysis, cells were washed twice with cold PBS and fixed in 70% ethanol overnight at 4° C. Fixed cells were collected at 1800 rpm for 10 min and stained with PBS containing PI and DNase-free RNase A (Sigma-Aldrich) for 1 h at room temperature in the dark. DNA content was measured by BD LSRII flow cytometer and cell further analyzed using program of cell cycle analysis in FloJo (Ashland, OR). The chicken erythrocyte nuclei singlets (CEN, Biosure) were used as the reference. For apoptosis assessment, live cells were collected, washed twice with cold PBS, resuspended in Binding Buffer and stained with AnnexinV-FITC and 7AAD for 15 min at room temperature in the dark. Signals from FL1 and FL3 channels were collected by MACSQuant analyzer and further analyzed using FloJo. Early apoptosis was defined as AnnexinV+/7AAD−, and late apoptosis was observed as AnnexinV+/7AAD+.

[4] = tested on: Hsp70 induction in HEK293 cells; assay: Hsp70 induction in HA-TLR9 transfected HEK293 cells; assay type: cell-based, human; conditions: 24 h
Description: Cell fractionation and immunoblotting. Cells were either treated with DMSO (vehicle) or indicated compounds for 24 hr and lysed in RIPA buffer (50 mM Tris-HCl, pH 7.4, 150 mM NaCl, 0.5% sodium deoxycholate and 0.5% NP40) supplemented with cocktail protease inhibitors (Roche) to produce whole cell lysates. Lysates for cytosol and membrane fractions were harvested using ProteoExtract Subcellular Proteome Extraction Kit (Calbiochem) following the manufacturer's instructions. Protein concentrations were determined using BCA kit (Pierce) according to the manufacturer's instructions. The protein lysates ([…]) were electrophoretically resolved by SDS-PAGE, transferred onto nitrocellulose membranes and probed with the indicated primary antibodies against: HER^2 (Zymed, 28004), Hsp70 (Stressgen, SPA-810), Grp94 (Stressgen, SPA-850), Hsp90α (Abcam, Ab2928), Hsp90β (StressMarq, SMC-107B), Grp78 (Cell Signaling, 3183), Raf-1 (Santa Cruz, sc-133), phospho-Raf-1 (Cell Signaling, 9421), MEK1/2 (Cell Signaling, 8727), phospho-MEK1/2 (Cell Signaling, 9154), ERK1/2 (Cell Signaling, 4695), phospho-ERK1/2 (Cell Signaling, 4370), AKT (Cell Signaling, 9272), GM130 (Cell Signaling, 2296), Flotillin 2 (Cell Signaling, 3436), Histone H4 (Cell Signaling, 2592), Histone H1 (Santa Cruz, sc-8030), Caspase 3 (Cell Signaling, 9665), cleaved PARP (Promega, G7341), a-tubulin (Sigma, T5168) and 3-actin (Sigma, A1978). After washing off the excess antibodies, the membranes were incubated with the corresponding horseradish peroxidase (HRP) conjugated secondary antibody. Blots were visualized by autoradiography using the Enhanced Chemiluminescence Detection System (GE Healthcare) according to manufacturer's instructions. […]
TLR^9-trafficking assay (Yang, Y. et al. Heat shock protein gp96 is a master chaperone for toll-like receptors and is important in the innate function of macrophages. Immunity 26, 215-26 (2007)). […] Fluorescence intensity was quantified using MetaMorph Microscopy Automation and Image Analysis Software (Molecular Devices Inc.) and normalized to the cell number.

[5] = tested on: IGF-II secretion by differentiated C2C12 cells; assay: C2C12 differentiation and IGF-II secretion assay; assay type: cell-based, mouse; conditions: 24 hrs treatment
Text: C2C12 differentiation and IGF-II secretion assay (Wanderling, S. et al. GRP94 is essential for mesoderm induction and muscle development because it regulates insulin-like growth factor secretion. Mol. Biol. Cell 18, 3764-75 (2007); Ostrovsky, O., Ahmed, N.T. & Argon, Y. The chaperone activity of GRP94 toward insulin-like growth factor II is necessary for the stress response to serum deprivation. Mol. Biol. Cell 20, 1855-64 (2009)). C2C12 cells were maintained and cultured in DMEM in the presence of 10% FBS and 1% penicillin/streptomycin (Culture medium). C2C12 is an immortal line of mouse skeletal myoblasts originally derived from satellite cells from the thigh muscle of a two month old female mouse donor. These cells differentiate well into myocytes under appropriate culture conditions. […] Secreted IGF-II was quantified by using IGF-II mouse ELISA kit (Abcam, AB100696) according to the manufacturer's instructions. […] The bound IGF-II was detected with a biotinylated anti-IGF-II antibody. After the sequential incubation with HRP conjugated streptavidin, TMB One-step substrate reagent and the Stop solution, the absorbance was measured at 450 nm. The secreted IGF-II was quantified against a standard curve generated with recombinant IGF-II provided by the kit.

[6] = tested on: Hsp70 induction and AKT degradation (cytosolic Hsp90 hallmarks) in C2C12 cells; assay: Western blot of Hsp70 induction and AKT degradation in C2C12 cells; assay type: cell-based, mouse; conditions: 24 hrs
Description: Cell fractionation and immunoblotting. Cells were either treated with DMSO (vehicle) or indicated compounds for 24 hr and lysed in RIPA buffer (50 mM Tris-HCl, pH 7.4, 150 mM NaCl, 0.5% sodium deoxycholate and 0.5% NP40) supplemented with cocktail protease inhibitors (Roche) to produce whole cell lysates. Lysates for cytosol and membrane fractions were harvested using ProteoExtract Subcellular Proteome Extraction Kit (Calbiochem) following the manufacturer's instructions. Protein concentrations were determined using BCA kit (Pierce) according to the manufacturer's instructions. […] After washing off the excess antibodies, the membranes were incubated with the corresponding horseradish peroxidase (HRP) conjugated secondary antibody. Blots were visualized by autoradiography using the Enhanced Chemiluminescence Detection System (GE Healthcare) according to manufacturer's instructions. For all gels 3-actin was used as a protein loading control.

[7] = tested on: HER2 at the plasma membrane of SKBr3 cells; assay: Immunofluorescence of HER2 architecture at the plasma membrane; assay type: cell-based
Description: We next investigated the biological significance of the unique association of HER^2 with Grp94 at the plasma membrane of SKBr3 cells. Because the Grp94 inhibitors described here target the ATP-binding pocket of Grp94, they affect Grp94 chaperone activity. Therefore we hypothesized that Grp94 may act on HER^2 at the plasma membrane to stabilize the protein and to regulate its function.
Immunofluorescence. Cells were seeded and grown onto culture slides (BD Falcon) for 24 hrs. After washing with cold PBS, cells were fixed by treating at 4° C. for 20 min with 4% paraformaldehyde in PBS, permeabilized with 0.1% Triton X-100 in PBS containing 10% FBS for 10 min, and blocked with 2% BSA for 1 hr. After washing for four times with PBS, primary antibodies were added onto the chambers and cell were incubated overnight at 4° C., washed again with PBS followed by incubation with the secondary antibody for 1 hr at room temperature. Cell were washed and then mounted and observed under microscope (Leica Upright Confocal SP5). The primary antibodies used in the assay are against: HER^2 (Zymed, 28004), Grp94 (Stressgen, SPA-850), Hsp70 (Stressgen, SPA-810), LAMP1-FITC (Abcam, ab25406), EEA1 (Abcam, ab70521), 58K Golgi-FITC (Abcam, ab27043) and Calnexin (BD, 610523).

[8] = target: T1, Hsp90α (Homo sapiens, UniProt P07900); assay: biochemical
[9] = target: Grp94 (Canis lupus familiaris, UniProt P41148); conditions: read-out: Grp94; FP competition, 6 nM Cy3B-GM, 10 nM protein, 4° C. for 24 h
Grp94, sequence (P41148 with tags, fused parts or gaps DELINS287-327GGGG): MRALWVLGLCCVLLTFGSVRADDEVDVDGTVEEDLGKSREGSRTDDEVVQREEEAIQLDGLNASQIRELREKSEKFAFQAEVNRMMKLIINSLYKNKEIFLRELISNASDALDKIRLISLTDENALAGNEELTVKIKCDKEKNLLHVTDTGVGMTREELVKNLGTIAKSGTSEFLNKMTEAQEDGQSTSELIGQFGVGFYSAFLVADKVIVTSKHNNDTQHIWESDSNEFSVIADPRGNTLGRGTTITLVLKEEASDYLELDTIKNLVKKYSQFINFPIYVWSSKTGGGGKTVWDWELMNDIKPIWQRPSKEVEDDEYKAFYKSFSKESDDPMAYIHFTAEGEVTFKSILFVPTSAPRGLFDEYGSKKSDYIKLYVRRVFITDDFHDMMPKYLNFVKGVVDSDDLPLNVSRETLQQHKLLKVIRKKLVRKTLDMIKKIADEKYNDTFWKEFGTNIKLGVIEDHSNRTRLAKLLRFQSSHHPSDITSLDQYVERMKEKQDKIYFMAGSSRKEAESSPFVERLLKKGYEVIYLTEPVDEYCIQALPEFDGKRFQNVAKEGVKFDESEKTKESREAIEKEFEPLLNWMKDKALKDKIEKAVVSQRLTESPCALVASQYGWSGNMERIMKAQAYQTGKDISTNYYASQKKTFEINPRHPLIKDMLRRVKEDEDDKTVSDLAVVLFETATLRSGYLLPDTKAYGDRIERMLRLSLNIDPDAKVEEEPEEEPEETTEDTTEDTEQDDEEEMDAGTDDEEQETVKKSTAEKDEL

[10] = tested on: 97 kinases; assay: Kinase screen (Discoverx scanEDGE / KINOMEscan); assay type: binding; conditions: tested at 10 uM
[11] = target: T2, Trap-1 (Homo sapiens, UniProt Q12931); conditions: read-out: TRAP-1
T2 sequence (Q12931 60-704): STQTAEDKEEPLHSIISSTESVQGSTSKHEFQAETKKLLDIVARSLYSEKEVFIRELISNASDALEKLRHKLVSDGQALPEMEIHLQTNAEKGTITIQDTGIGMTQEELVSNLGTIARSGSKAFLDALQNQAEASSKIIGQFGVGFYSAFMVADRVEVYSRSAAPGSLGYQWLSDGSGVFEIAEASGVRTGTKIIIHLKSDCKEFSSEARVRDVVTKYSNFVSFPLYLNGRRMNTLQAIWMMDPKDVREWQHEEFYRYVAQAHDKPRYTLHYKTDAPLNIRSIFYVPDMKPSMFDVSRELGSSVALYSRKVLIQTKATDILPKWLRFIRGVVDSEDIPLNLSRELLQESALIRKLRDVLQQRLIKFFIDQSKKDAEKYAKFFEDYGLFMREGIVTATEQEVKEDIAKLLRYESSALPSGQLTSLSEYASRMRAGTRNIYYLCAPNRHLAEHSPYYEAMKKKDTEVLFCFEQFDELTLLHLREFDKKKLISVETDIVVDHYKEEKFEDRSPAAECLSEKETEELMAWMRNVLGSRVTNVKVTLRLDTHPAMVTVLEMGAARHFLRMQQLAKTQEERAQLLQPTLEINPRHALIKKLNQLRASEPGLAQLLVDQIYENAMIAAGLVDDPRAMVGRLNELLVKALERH

[12] = target: Hsp90β (Homo sapiens, UniProt P08238)
Hsp90β, sequence (P08238 whole entry): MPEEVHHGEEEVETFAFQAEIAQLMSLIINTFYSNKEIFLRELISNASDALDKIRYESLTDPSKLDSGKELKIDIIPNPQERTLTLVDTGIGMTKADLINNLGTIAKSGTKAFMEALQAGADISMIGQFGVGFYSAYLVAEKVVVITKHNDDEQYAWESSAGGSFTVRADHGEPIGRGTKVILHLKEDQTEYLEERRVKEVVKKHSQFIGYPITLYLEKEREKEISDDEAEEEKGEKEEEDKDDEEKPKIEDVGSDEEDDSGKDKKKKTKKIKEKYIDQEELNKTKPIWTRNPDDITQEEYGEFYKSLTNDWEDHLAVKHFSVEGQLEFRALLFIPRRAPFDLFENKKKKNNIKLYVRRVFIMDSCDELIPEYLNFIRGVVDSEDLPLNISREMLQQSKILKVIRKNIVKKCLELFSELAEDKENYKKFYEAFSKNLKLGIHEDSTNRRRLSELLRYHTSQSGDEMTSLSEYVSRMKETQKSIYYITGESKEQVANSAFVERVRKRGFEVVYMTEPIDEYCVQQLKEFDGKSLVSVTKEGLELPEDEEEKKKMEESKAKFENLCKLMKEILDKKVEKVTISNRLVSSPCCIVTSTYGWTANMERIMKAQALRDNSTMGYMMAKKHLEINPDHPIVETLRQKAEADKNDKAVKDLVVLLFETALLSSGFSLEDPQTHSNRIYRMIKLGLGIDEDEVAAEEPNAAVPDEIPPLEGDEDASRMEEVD

[13] = tested on: Human Umbilical Vein Endothelial Cells (HUVECs); assay: Angiogenesis studies with HUVEC cells; assay type: cell-based
[14] = tested on: TLR9 ligand CpG DNA induced TNF-α production in RAW 264.7 macrophages; assay: TNFα ELISA, CpG DNA stimulated macrophages; assay type: cell-based, mouse
[15] = target: T1, Hsp90α
[16] = target: T2, Trap-1; conditions: relative to Hsp90
[17] = tested on: PANC1 EGFR-overexpressing cells; conditions: Mol Cancer Ther 2006; 5:2051-2059; cited from earlier work

Structure (SMILES) | TLR9 trafficking [2] | induction of apoptosis [3] | Hsp70 induction [4] | AKT degradation [6] | Hsp70 induction [6] | IC50 [11] [µM] | IC50 [12] [µM] | other results
COC1=C2C[C@@H](C)C[C@H](OC)[C@H](O)[C@@H](C)/C=C(\C)[C@H](OC(N)=O)[C@@H](OC)/C=C\C=C(/C)C(=O)NC(=CC1=O)C2=O [GM, geldanamycin, reference compound] | – | – | – | – | – | – | – | toxicity to C2C12 cells [1]: cell killing
COc1cc(Cc2nc3c(N)nc(F)nc3n2CCOC(C)C)cc(OC)c1OC [PU-29F] | minimally effecting; also recorded: fails to inhibit TLR^9 trafficking | very little effect | induces Hsp70 | degradation of AKT; also recorded: degrade AKT | dose-dependent increase in Hsp90 levels; also recorded: induce Hsp70 | – | – | IGF-II secretion [5]: minimally effecting; effect on HER2 architecture at the plasma membrane [7]: failed to disturb the membrane HER^2 architecture
C#CCCCn1c(Sc2ccc(Cl)cc2Cl)nc2c(N)ncnc21 [PU-H39] | – | – | – | – | – | 145 ± 13.4 | > 300 | IC50 ([8]; FP competition, 6 nM Cy3B-GM, 10 nM protein, 4° C. for 24 h): > 300 µM; IC50 [9]: 0.12 ± 0.04 µM; effect on the tested 97 kinases [10]: no significant effect
C#CCCCn1cnc(N)c2nc(Sc3ccc(C)cc3C)nc1-2 [PU-H54] | – | – | – | – | – | 54.1 ± 4.6 | > 250 | HUVEC cell proliferation [13]: does not affect substantially the cell proliferation; angiogenic-like transformation of HUVECs induced by Grp94 and by peak 2 [13]: able to change the angiogenic-like transformation of HUVECs; also recorded: displays an anti-angiogenic effect; also recorded: inhibited; IC50 [8]: > 250 µM; CpG DNA induced TNF-α production [14]: inhibited this response in a concentration dependent manner; also recorded: inhibit; affinity for Hsp90 [15]: low affinity
CC(C)NCCCn1c(Sc2cc3c(cc2I)OCO3)nc2c(N)ncnc21 [PU-H71] | inhibit TLR^9 trafficking | very little effect | induce Hsp70 | degrade AKT | induce Hsp70 | – | – | decrease in binding efficacy for Trap-1 [16]: 5 fold
C#Cc1cccc(Nc2ncnc3cc(OCCOC)c(OCCOC)cc23)c1 [erlotinib] | – | – | – | – | – | – | – | reported resistance of PANC1 cells [17]: resistant

— patent US12600725B2 (Memorial Sloan-Kettering Cancer Center, priority 2013, dated 2026)
